For orientation: IC50 means the concentration that gives 50% inhibition.

The text below walks through data of US6784201B2, “Benzothiepines having activity as inhibitors of ileal bile acid transport and taurocholate uptake” (G.D. Searle & Company, priority 1994, dated 2004).

Structures can show the parent of a compound that is named as a salt. Where two headings read alike, the source gives them in different places.

Assay [1] deals with fecal bile acid (FBA). Description: Rat gavage assay (fecal bile acid increase). In kind it is in vivo. On the procedure:
Male Wister rats (275-300 g) are administered IBAT inhibitors using an oral gavage procedure. Drug or vehicle (0.2% Tween 80 in water) is administered once a day (9:00-10:0 a.m.) for 4 days at varying dosages in a final volume of 2 mL per kilogram of body weight. Total fecal samples are collected during the final 48 hours of the treatment period and analyzed for bile acid content using an enzymatic assay as described below. Compound efficacy is determined by comparison of the increase in fecal bile acid (FBA) concentration in treated rats to the mean FBA concentration of rats in the vehicle group.
Measurement of Fecal Bile Acid Concentration (FBA)
Total fecal output from individually housed hamsters was collected for 24 or 48 hours, dried under a stream of nitrogen, pulverized and weighed. Approximately 0.1 gram was weighed out and extracted into an organic solvent (butanol/water). Following separation and drying, the residue was dissolved in methanol and the amount of bile acid present was measured enzymatically using the 3α-hydroxysteroid steroid dehydrogenase reaction with bile acids to reduce NAD. (Reference: Mashige, F., et al. (1981) Clin. Chem. 27, 1352).

Assay [2] addresses T1, human IBAT (Homo sapiens, UniProt Q12908).
T1 construct: expressed in transfected cells; host or cells: Baby hamster kidney (BHK) cells, clone H14
T1 sequence (Q12908 1-348): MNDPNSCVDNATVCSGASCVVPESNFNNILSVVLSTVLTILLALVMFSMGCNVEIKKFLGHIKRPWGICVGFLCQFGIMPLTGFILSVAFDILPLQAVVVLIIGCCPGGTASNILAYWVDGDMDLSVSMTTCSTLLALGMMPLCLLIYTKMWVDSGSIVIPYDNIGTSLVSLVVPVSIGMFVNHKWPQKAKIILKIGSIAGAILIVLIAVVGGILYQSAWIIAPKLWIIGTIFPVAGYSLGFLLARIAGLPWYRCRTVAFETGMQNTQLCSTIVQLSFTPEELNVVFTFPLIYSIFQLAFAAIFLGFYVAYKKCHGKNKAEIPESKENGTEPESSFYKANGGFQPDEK
Description: In vitro assay of IBAT-mediated uptake of [14C]-taurocholate (TC) in H14 cells. Conditions: for IC50: read-out: Human TC IC50; for In vitro % Inhibition of TC Uptake: 50 μM. In kind it is cell-based. Put shortly: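 BHK cells stably expressing human IBAT (H14) were incubated 2 h at 37° C with compound and 3 μM final [14C]-taurocholate in DMEM (4.5 g/L glucose) plus 0.2% fatty acid-free BSA. After cold PBS washes, cell-associated radioactivity was measured by scintillation counting.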

Setting [3] is: In Vitro Taurocholate Uptake, Table 10.

For the compound `CCCCC1(CCCC)CS(=O)(=O)c2ccc(N(C)C)cc2[C@@H](c2ccc(OCc3ccc(CN(CC(=O)O)CC(=O)O)cc3)cc2)[C@H]1O` (relative stereo) [Example 1427], the “Delta (micromoles fecal bile acid per day)” value in assay [1] (dose 2 mg/kg/day) is 36.7 micromoles fecal bile acid per day; in assay [1] (dose .016 mg/kg/day), 13.8 micromoles fecal bile acid per day; in assay [1] (dose .08 mg/kg/day), 27.3 micromoles fecal bile acid per day; in assay [1] (dose .4 mg/kg/day), 35.8 micromoles fecal bile acid per day. Further, the IC50 in assay [2] (setting [3]) turned out to be 2 nM.
With `CCCCC1(CCCC)CS(=O)(=O)c2ccc(N(C)C)cc2C(c2cccc(OCCOCCOCC[n+]3cccn3-c3ccccc3)c2)C1O` (stereo not drawn) [Example 1361], the IC50 in assay [2] came to 4 nM.
For the compound `CCCCC1(CCCC)CS(=O)(=O)c2ccc(N(C)C)cc2C(c2cccc(OCCOCCOCC[N+](CC)(CC)CCC(=O)O)c2)C1O` (stereo not drawn) [Example 1362], the IC50 in assay [2] stood at 19 nM.
With `CCCCC1(CCCC)CS(=O)(=O)c2ccc(N(C)C)cc2C(c2cccc(OCCOCCOCC[N+](CC)(CC)CCNS(=O)(=O)N(C)C)c2)C1O` (stereo not drawn) [Example 1363], in assay [2], the IC50 was 8 nM.
For the compound `CCCCC1(CCCC)CS(=O)(=O)c2ccc(N(C)C)cc2C(c2cccc(OCCOCCOCC[N+](CC)(CC)CCNC(N)=O)c2)C1O` (stereo not drawn) [Example 1364], the IC50 in assay [2] came out at 6 nM.
As to `CCCCC1(CCCC)CS(=O)(=O)c2ccc(N(C)C)cc2C(c2cccc(OCCOCCOCC[N+](CC)(CC)CCNS(=O)(=O)c3ccccc3)c2)C1O` (stereo not drawn) [Example 1365], the 50% inhibitory concentration (IC50) in assay [2] was determined as 8 nM.
The same measure, in the same setting: then `CCCCC1(CCCC)CS(=O)(=O)c2ccc(N(C)C)cc2C(c2ccc(OCCCC[n+]3ccc(C(=O)OC)cc3)c(F)c2)C1O` (stereo not drawn) [Example 1366], with 15 nM; and `CCCCC1(CCCC)CS(=O)(=O)c2ccc(N(C)C)cc2C(c2cccc(OCCOCCOCC[n+]3ccn(CC)c3)c2)C1O` (stereo not drawn) [Example 1367], with 2 nM; and `CCCCC1(CCCC)CS(=O)(=O)c2ccc(N(C)C)cc2C(c2cccc(OCCOCCOCC[n+]3c(C)cc(C)cc3C)c2)C1O` (stereo not drawn) [Example 1368], with 5 nM.
`CCCCC1(CCCC)CS(=O)(=O)c2ccc(N(C)C)cc2C(c2cccc(OCCOCCOCC[n+]3ccccc3-c3ccccc3)c2)C1O` (stereo not drawn) [Example 1369]: the IC50 in assay [2] worked out at 5 nM.
Turning to `CCCCC1(CCCC)CS(=O)(=O)c2ccc(N(C)C)cc2C(c2cccc(OCCOCCOCC[N+](C)(C)C3CC(C)(C)N(C)C(C)(C)C3)c2)C1O` (stereo not drawn) [Example 1370], in assay [2], the IC50 amounted to 2 nM.
Take `CCCCC1(CCCC)CS(=O)(=O)c2ccc(N(C)C)cc2C(c2cccc(OCCOCCOCC[N+](CC)(CC)CC#N)c2)C1O` (stereo not drawn) [Example 1371]: in assay [2], the IC50 came to 4 nM.
`CCCCC1(CCCC)CS(=O)(=O)c2ccc(N(C)C)cc2C(c2cccc(OCCOCCOCC[N+](CC)(CC)CCNC(=O)N(C)C)c2)C1O` (stereo not drawn) [Example 1372]: the IC50 in assay [2] was 4 nM.
As to `CCCCC1(CCCC)CS(=O)(=O)c2ccc(N(C)C)cc2C(c2cccc(OCCOCCOCC[N+](CC)(CC)CCNP(C)(=O)c3ccccc3)c2)C1O` (stereo not drawn) [Example 1373], the IC50 in assay [2] came to 8 nM.
Take `CCCCC1(CCCC)CS(=O)(=O)c2ccc(N(C)C)cc2C(c2cccc(OCCOCCOCC[N+](CC)(CC)CCNC(=O)c3ccccc3)c2)C1O` (stereo not drawn) [Example 1374]: the half-maximal inhibitory concentration (IC50) in assay [2] is 7 nM.
For the compound `C=C(C)C(=O)OCC[N+](CC)(CC)CCOCCOCCOc1cccc(C2c3cc(N(C)C)ccc3S(=O)(=O)CC(CCCC)(CCCC)C2O)c1` (stereo not drawn) [Example 1375], the IC50 in assay [2] is 2 nM.
For the compound `CCCCC1(CCCC)CS(=O)(=O)c2ccc(N(C)C)cc2[C@@H](c2ccc(OCC(=O)NCC(=O)O)cc2)[C@H]1O` [Example 1403], the “Delta (micromoles fecal bile acid per day)” value in assay [1] (dose 2 mg/kg/day) is listed as 41.6 micromoles fecal bile acid per day; in assay [1] (dose .016 mg/kg/day), 3 micromoles fecal bile acid per day; in assay [1] (dose .08 mg/kg/day), 11.9 micromoles fecal bile acid per day; in assay [1] (dose .4 mg/kg/day), 35.2 micromoles fecal bile acid per day. Besides, in assay [2] (setting [3]), the IC50 is 23 nM.
Consider `CCCCC1(CCCC)CS(=O)(=O)c2ccc(N(C)C)cc2[C@@H](c2ccc(OCCCCC(=O)O)cc2)[C@H]1O` [Example 1404, (4R-cis)-5-[4-[3,3-Dibutyl-7-(dimethylamino)-2,3,4,5-tetrahydro-4-hydroxy-1,1-dioxido-1-benzothiepin-5-yl]phenoxy]pentanoic Acid], for which the “Delta (micromoles fecal bile acid per day)” value in assay [1] (dose 5 mg/kg/day) was 93.7 micromoles fecal bile acid per day; in assay [1] (dose .04 mg/kg/day) it was 33.5 micromoles fecal bile acid per day; in assay [1] (dose .2 mg/kg/day), 59.1 micromoles fecal bile acid per day. Besides, in assay [2] (setting [3]), the IC50 stood at 10 nM.
Turning to `CCCCC1(CCCC)CS(=O)(=O)c2ccc(N(C)C)cc2[C@@H](c2ccc(OCCC[N+]34CCN(CC3)CC4)cc2)[C@H]1O` [Example 1406, (4R-cis)-1-[3-[4-[3,3-Dibutyl-7-(dimethylamino)-2,3,4,5-tetrahydro-4-hydroxy-1,1-dioxido-1-benzothiepin-5-yl]phenoxy]propyl]-4-aza-1-azoniabicyclo[2.2.2]octane, Methanesulfonate (Salt)], the “Delta (micromoles fecal bile acid per day)” value in assay [1] (dose 2 mg/kg/day) is listed as 47.8 micromoles fecal bile acid per day; in assay [1] (dose .016 mg/kg/day), −8.5 micromoles fecal bile acid per day; in assay [1] (dose .08 mg/kg/day) it was 12.8 micromoles fecal bile acid per day; in assay [1] (dose .4 mg/kg/day), 31.6 micromoles fecal bile acid per day. In assay [2] (setting [3]), the IC50 was found to be 4 nM.
In the case of `CCCCC1(CCCC)CS(=O)(=O)c2ccc(N(C)C)cc2[C@@H](c2ccc(OCCC[N+]34CCN(CC3)CC4)cc2)[C@H]1O` [Example 1407, (4R-cis)-1-[3-[4-[3,3-Dibutyl-7-(dimethylamino)-2,3,4,5-tetrahydro-4-hydroxy-1,1-dioxido-1-benzothiepin-5-yl]phenoxy]propyl]-4-aza-1-azoniabicyclo[2.2.2]octane, 4-methylbenzenesulfonate (Salt)], in assay [2] (setting [3]), the 50% inhibitory concentration (IC50) was found to be 3 nM.
For `CCCCC1(CCCC)CS(=O)(=O)c2ccc(N(C)C)cc2[C@@H](c2ccc(OCCCC[N+]34CCN(CC3)CC4)cc2)[C@H]1O` [Example 1408, (4R-cis)-1-[4-[4-[3,3-Dibutyl-7-(dimethylamino)-2,3,4,5-tetrahydro-4-hydroxy-1,1-dioxido-1-benzothiepin-5-yl]phenoxy]butyl]-4-aza-1-azoniabicyclo [2.2.2]octanemethanesulfonate (Salt)], in assay [2] (setting [3]), the IC50 worked out at 1 nM.
On to `CCCCC1(CCCC)CS(=O)(=O)c2ccc(N(C)C)cc2[C@@H](c2ccc(OCCCC[N+]34CCN(CC3)CC4)cc2)[C@H]1O` [Example 1409, (4R-cis)-1-[4-[4-[3,3-Dibutyl-7-(dimethylamino)-2,3,4,5-tetrahydro-4-hydroxy-1,1-dioxido-1-benzothiepin-5-yl]phenoxy]butyl]-4-aza-1-azoniabicyclo[2.2.2]octane-4-methylbenzenesulfonate (Salt)], for which, in assay [2] (setting [3]), the IC50 stood at 0.9 nM.
Consider `CCCCC1(CCCC)CS(=O)(=O)c2ccc(N(C)C)cc2[C@@H](c2ccc(OCCCCC[n+]3cccc4ccccc43)cc2)[C@H]1O` [Example 1412, (4R-cis)-1-[5-[4-[3,3-Dibutyl-7-(dimethylamino)-2,3,4,5-tetrahydro-4-hydroxy-1,1-dioxido-1-benzothiepin-5-yl]phenoxy]pentyl]quinolinium, methanesulfonate (Salt)], for which, in assay [2] (setting [3]), the IC50 is 3 nM.
As for `CCCCC1(CCCC)CS(=O)(=O)c2ccc(N(C)C)cc2[C@@H](c2ccc(OCc3cc[n+](C)cc3)cc2)[C@H]1O` [Example 1428, (4R-cis)-4-[[4-[3,3-Dibutyl-7-(dimethylamino)-2,3,4,5-tetrahydro-4-hydroxy-1,1-dioxido-1,1-dioxido-1-benzothiepin-5-yl]phenoxy]methyl]-1-methylpyridinium salt with trifluoroacetic acid (1:1)], in assay [2] (setting [3]), the IC50 is 0.7 nM.
For `CCCCC1(CCCC)CS(=O)(=O)c2ccc(N(C)C)cc2[C@@H](c2ccc(OCc3cccc(CN(CC(=O)O)CC(=O)O)n3)cc2)[C@H]1O` [Example 1431, (4R-cis)-N-(Carboxymethyl)-N-[[6-[[4-[3,3-dibutyl-7-(dimethylamino)-2,3,4,5-tetrahydro-4-hydroxy-1,1-dioxido-1-benzothiepin-5-yl]phenoxy]methyl]-2-pyridinyl]methyl]glycine], in assay [2] (setting [3]), the IC50 is 5 nM.
Turning to “cis-4-Hydroxy-5-phenyl-2,3,4,5-tetrahydro spiro(benzothiepine-3,1′-cyclohexane)-1,1-dioxide [Example 60]”, the “In vitro % Inhibition of TC Uptake” value in assay [2] turned out to be 41%.
For “trans-4-Hydroxy-5-phenyl-2,3,4,5-tetrahydro spiro(benzothiepine-3,1′-cyclohexane)-1,1-dioxide [Example 59]”, in assay [2], the “In vitro % Inhibition of TC Uptake” value turned out to be 96%.
